Measured values taken from publication PMC10424242, “Macrocyclic Peptidomimetic Plasmepsin X Inhibitors with Potent In Vitro and In Vivo Antimalarial Activity” (Journal of Medicinal Chemistry, 2023).
Where two headings read alike, the source gives them in different places.

Experiments:
PMIV = PMIV (Plasmodium falciparum, UniProt Q8IM16); assay: FRET-based PMIV inhibition assay; format: biochemical, P. falciparum
Description: (§1) A fluorescence resonance energy transfer (FRET)-based assay was performed to assess the ability of the compounds to inhibit PMIV, CatD, and BACE1. Serial dilutions of test compounds were dispensed in a white 96-well plate. […] The mixture was incubated for 20 min at 37 °C. […] IC50 values were calculated with GraphPad Prism 8.0 using the nonlinear regression, variable slope (four parameters). Compounds were tested in triplicate.

BACE1 = BACE1 (Homo sapiens, UniProt P56817); assay: FRET-based BACE1 inhibition assay (selectivity counter screen); format: biochemical
Sequence of BACE1 (P56817 46-501): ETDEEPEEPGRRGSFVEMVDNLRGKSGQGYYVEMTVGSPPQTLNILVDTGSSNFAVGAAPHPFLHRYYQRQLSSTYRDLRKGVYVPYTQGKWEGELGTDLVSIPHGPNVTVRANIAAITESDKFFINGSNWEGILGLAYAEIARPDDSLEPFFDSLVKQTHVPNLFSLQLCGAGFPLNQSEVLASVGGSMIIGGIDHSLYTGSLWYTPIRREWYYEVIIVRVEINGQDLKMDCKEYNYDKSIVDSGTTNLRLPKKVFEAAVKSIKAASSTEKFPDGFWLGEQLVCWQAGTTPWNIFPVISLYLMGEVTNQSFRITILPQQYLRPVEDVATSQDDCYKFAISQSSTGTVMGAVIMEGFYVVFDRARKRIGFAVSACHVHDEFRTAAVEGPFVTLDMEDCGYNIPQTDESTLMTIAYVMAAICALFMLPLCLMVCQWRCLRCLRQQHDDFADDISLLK
Description: as §1

[1] = Drug blood concentrations in PfalcHuMice during efficacy testing; format: in vivo; conditions: for total Cmin: PfalcHuMouse, 40 mg/kg p.o.
Description: The concentrations of drugs were measured in samples of peripheral blood (25 μL) taken at different times after the first dosing, mixed with 25 μL of Milli-Q H2O, and immediately frozen on a thermal block at −80 °C. The frozen samples were stored at −80 °C until analysis. Blood from control humanized mice was used for the preparation of standard curves, calibration, and quality control purposes. The drugs were extracted from 10 μL of lysates obtained by protein precipitation of blood samples using standard liquid–liquid extraction methods. The samples were analyzed by LC-MS/MS for quantification in a Waters Micromass UPLC-TQD (Waters, Manchester, U.K.). Blood concentration vs time was analyzed by non-compartmental analysis (NCA) using Phoenix WinNonlin vers.9.2 (Certara) or R or Excel (Microsoft), from which exposure-related values (tmax, Cmax, and AUC0–t) were estimated.

[2] = Liver microsomal metabolic stability; format: in vitro ADME, mouse
Description: Microsomal stability assays are performed as described elsewhere.[41] Test compounds and pooled mouse liver microsomes are incubated in potassium phosphate buffer in the presence of the cofactor NADPH at 37 °C. Reaction mixtures (700 μL) contain a final concentration of 5 μM test compound, 0.05% DMSO, 0.5 mg/mL microsomes, and ∼0.7–0.9 mM NADPH in 100 mM potassium phosphate buffer at pH 7.4. Reactions are terminated by the addition of 100 μL of the reaction mixture to 900 μL of acetonitrile after 0, 5, 15, 30, 45, and 60 min of incubation. Samples were centrifuged, and the resultant supernatant was analyzed by ultra-performance liquid chromatography–tandem mass spectrometry (UPLC-MS/MS). The amount of remaining compound is calculated and compared to the initial amount of test compound (zero time point). Verapamil is used as a positive control, and samples prepared without cofactor NADPH are used as a negative control (0 and 60 min). The in vitro metabolic stability parameters (half-life value (t1/2) and intrinsic clearance value (Clint)) are calculated from the slope of the Ln of concentration remaining vs the time curve.

cathepsin D (CatD) = cathepsin D (CatD) (Homo sapiens, UniProt P07339); assay: FRET-based CatD inhibition assay (selectivity counter screen); format: biochemical
Sequence of cathepsin D (CatD) (P07339 65-412): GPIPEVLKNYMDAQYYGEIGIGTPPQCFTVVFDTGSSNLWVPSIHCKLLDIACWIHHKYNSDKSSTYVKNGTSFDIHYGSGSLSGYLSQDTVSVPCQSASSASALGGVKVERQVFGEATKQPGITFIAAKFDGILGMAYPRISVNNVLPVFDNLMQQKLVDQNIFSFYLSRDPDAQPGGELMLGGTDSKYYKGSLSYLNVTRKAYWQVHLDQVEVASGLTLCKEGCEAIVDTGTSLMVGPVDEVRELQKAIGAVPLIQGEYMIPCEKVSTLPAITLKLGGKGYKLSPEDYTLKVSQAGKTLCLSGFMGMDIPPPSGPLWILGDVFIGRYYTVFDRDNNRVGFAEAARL
Description: as §1

[3] = test system: maturation of RAP1, substrate of PMIX; assay: Western blot of RAP1 maturation in treated schizonts; format: cell-based, P. falciparum; conditions: 20 nM, 44 h
Description: Figure 4 Macrocycle PMX inhibitors have no effect on intraerythrocytic parasite maturation but prevent egress and maturation of SUB1. […] Scale bar, 20 μm. (B) Simplified schematic of proteolytic maturation of the egress effector SUB1. Conversion of the precursor form to p54 is through autocatalytic removal[32] of the prodomain region (PD), whereas conversion of p54 to p47 is mediated by PMX.[15],[16],[33] (C) Left, Western blot analysis of P. falciparum 3D7 schizonts allowed to mature in the presence of the indicated macrocycle compounds (20 nM), showing defective SUB1 maturation in parasites treated with the indicated macrocycle compounds. Right, Western blot of the same extracts probed with a monoclonal antibody (mAb) specific to the rhoptry protein RAP1, which is a substrate for cleavage by the related P. falciparum protease PMIX. The compounds had no discernible effect on the maturation of RAP1. The results shown are typical of 3 independent experiments.
Synchronous parasite cultures were cultured from ring to schizont stage (∼44 h) in the presence of DMSO alone (0.04% v/v; control) or macrocycle compounds (20 nM final concentration). Schizonts were isolated by Percoll enrichment (still in the presence of the test compound), then either immediately frozen or further incubated in the absence of the drug but in the presence of C2 (1 μM) for 1 h at 37°C in the absence of added RBCs or for 3.5 h in the presence of added RBCs. The schizonts without added RBCs were then frozen too, and all schizont samples were then thawed into CHAPS–urea extraction buffer, subjected to sodium dodecyl sulfate-polyacrylamide gel electrophoresis (SDS-PAGE), and analyzed by Western blot, probing with antibodies against SUB1 or RAP1. For schizonts cultured in the presence of added RBCs, ring formation was assessed in two ways: cultures were examined microscopically by Giemsa stain of thin films and were also fixed with glutaraldehyde and processed for quantification of ring formation by flow cytometry as described above.

[4] = test system: P. falciparum 3D7 parasites; assay: Microscopy of synchronized P. falciparum cultures treated from ring stage (development and egress); format: cell-based; conditions: 20 nM
Description: Asexual blood-stage forms of P. falciparum strains 3D7 and Dd2 were maintained at 37 °C in an atmosphere of 1% O2, 5% CO2, and 94% N2 in human RBCs in RPMI 1640 medium containing AlbuMAX II (Thermo Fisher Scientific) and supplemented with 2 mM L-glutamine. The synchronization of parasite cultures was as described previously.[39] Briefly, this involved isolating mature schizont forms by centrifugation over cushions of 70% (v/v) isotonic Percoll (GE Healthcare, Life Sciences) and then allowing the parasites to undergo rupture in the presence of fresh RBCs for 2 h under gentle shaking conditions (100 rpm). Residual schizonts were then removed through a second Percoll separation, followed by treatment with 5% (w/v) sorbitol to finally obtain a highly synchronized preparation of newly invaded ring-stage parasites.
Growth stage progression and parasite morphology were also monitored by microscopic examination at selected time points using Giemsa-stained thin blood films.

[5] = Pharmacokinetics in mice (plasma, UPLC/MS/MS); format: in vivo; conditions: female, NMRI, mouse, po, p.os 50 mg/kg
Description: Animals were weighed on the day of the treatment (before treatment) to calculate the required amount of compound for the corresponding dose. For tolerability and PK studies, the mice were dosed via a peroral (PO) bolus administration (volume 10 mL/kg).
For the pharmacokinetics experiment, blood samples were collected in tubes containing heparin. […] Tubes were centrifuged at +4 °C 10,000g for 3 min. Plasma samples were collected and stored at −20 °C until analysis.
Concentrations of VAD259 in mouse plasma were measured by ultra-performance liquid chromatography–tandem mass spectrometry using Waters Acquity UPLC H-class chromatograph coupled to the Waters Xevo TQ-S micro mass spectrometer using the Waters Acquity UPLC BEH-C18 column (2.1 mm × 50 mm, 1.7 μm). Mobile phase A was 0.1% aqueous formic acid, and mobile phase B was acetonitrile.
The mass spectrometer was operated in positive electrospray ionization mode (ESI+), and data acquisition was performed in multiple reaction monitoring (MRM) modes with ionization parameters as follows: capillary energy of 3.0 kV, cone voltage of 25 V, and collision energy of 20 eV.
Blood plasma samples were processed using plasma protein precipitation. Then, 20 μL of plasma was mixed with 300 μL of acetonitrile/methanol (3:1/v:v) mixture, and the sample was centrifuged at 1000g for 10 min. The supernatant was further diluted 3 times with 0.1% aqueous formic acid and subjected to UPLC/MS/MS analysis.

Sequence of PMIV (Q8IM16 122-449): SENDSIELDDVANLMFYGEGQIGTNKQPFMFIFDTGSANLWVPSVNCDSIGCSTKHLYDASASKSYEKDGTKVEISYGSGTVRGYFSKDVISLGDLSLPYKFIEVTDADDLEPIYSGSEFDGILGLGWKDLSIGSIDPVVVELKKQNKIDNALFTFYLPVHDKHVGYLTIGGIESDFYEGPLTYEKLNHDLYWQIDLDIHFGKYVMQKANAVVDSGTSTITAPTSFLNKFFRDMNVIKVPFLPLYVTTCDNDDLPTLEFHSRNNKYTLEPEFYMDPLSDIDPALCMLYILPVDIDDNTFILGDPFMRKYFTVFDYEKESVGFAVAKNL

CCCN1CCCCCc2cccc(c2)C[C@@H]([C@H](O)CNC(C)(C)c2cccc(OC)c2)NC(=O)c2cccc(c2)C1=O [7k, (S)-4-((R)-1-Hydroxy-2-((2-(3-methoxyphenyl)propan-2-yl)amino)ethyl)-12-propyl-3,12-diaza-1,6(1,3)-dibenzenacyclotridecaphane-2,13-dione]
IC50 (PMIV; Table 3, read-out: PMIV, nM (as listed in Table 3)): 17 ± 2 nM
improvement of PMIV inhibitory potency (PMIV; compared to 7a): 3 fold
IC50 (PMIV; read-out: PMIV, nM (IC50)): 17 ± 2 nM
IC50 (BACE1): 2030 ± 100 nM
total Cmin ([1]; BID): 32 ng/mL
total Cmin ([1]; TID): 85 ng/mL
total Cmin ([1]; UID): 51 ng/mL
pharmacokinetic modeling of concentrations over the period of administration ([1]; plasma concentration at 71.0, 72.5, 73.0 and 78.0 hours post-treatment): rapid absorption with no accumulation
improvement of half-life in the microsomal stability test ([2]; compared to the acyclic analogue 6a): 3 fold
half-life at 1 h, 5 μM ([2]; pooled liver microsomes, pH 7.4, mouse liver microsomes, 5 μM): 16.9 min
microsomal CLint at 1 h, 5 μM ([2]; pooled liver microsomes, pH 7.4, mouse liver microsomes, 5 μM, read-out: microsomal stability CL(int)): 81.9 µL/min/mg
IC50 (cathepsin D (CatD)): 330 ± 20 nM
maturation of RAP (PMIX substrate) [3]: do not affect PMIX activity at these concentrations
intraerythrocytic development of ring-stage parasites to schizont stage ([4]; 44 h): Development of ring-stage parasites to the multinucleated schizont stage occurred similarly in all cultures
schizont rupture (egress) and appearance of new rings ([4]; 44 h and extended incubation): schizont rupture and appearance of new rings did not occur
AUC(0-t) at 6 h [5]: 218 ng·h/mL
Cmax at 6 h [5]: 64 ng/mL
Tmax at 6 h [5]: 60 min
half-life at 6 h [5]: 53 min
AUC(0-inf) at 6 h ([5]; read-out: AUC0-inf_obs): 222 ng·h/mL
